Measurements: patent publication US20190024193A1, “Sesquiterpene Biosensors and Uses Thereof” (priority 2017, published 2019)

Legend:
[1] = system: PB2 bisabolol biosensor; test: PB2 bisabolol biosensor reporter fluorescence (Gemini reporter, GFP portion) in E. coli EPI300 host cells; assay type: cell-based, E. coli EPI300 (PB2 insert originating from Pseudomonas); conditions: E. coli EPI300 with PB2, high (0.01% arabinose) or low copy number
Procedure: (§1) A metagenomic library made from environmental samples obtained from hots springs, permafrost, sea water, soil, and hydrocarbon resource samples (from soil) was made using the Meta-G-Nome™ DNA Isolation Kit and CopyControl™ Fosmid Library Production Kit obtained from Epicentre. 300-400 fosmid clones from this library were obtained and mixed with a Tn5 transposase and sufficient biosensor construct (FIG. 1) was added to give about 10 biosensor inserts per fosmid. The transposase randomly integrated the biosensor construct into the fosmid vector, and the modified fosmid library with biosensor constructs was transformed into E. coli strain EPI300™ (commercially sold by Epicentre). The E. coli EPI300™ transformed with the modified fosmid library was plated on LB media with 20 μg/ml spectinomycin and 0.01% arabinose.
(§2) These functional biosensors were interrogated with (−)-α-bisabolol and clones that produced reporter fluorescence above control in response to the (−)-α-bisabolol were selected. Two bisabolol positive clones were selected and designated PB2 and PB3. PB2 was obtained from a fosmid with an insert originating from Pseudomonas, and PB3 was obtained from a fosmid with an insert originating from Bradyrhizobium.
(§3) As described above, the copy number of the fosmids with the PB2 biosensor and the PB3 biosensor can by increased in E. coli EPI300™ host cells that are treated with arabinose to induce an increase in copy number of the fosmid. E. coli EPI300™ with the PB2 or PB3 biosensors were treated (high copy number) or not treated (low copy number) with arabinose and then screened for reporter activity (Gemini reporter fluorescence from the GFP portion).
(§4) E. coli EPI300™ with fosmids containing PB2 or PB3 were grown without arabinose (low copy number) and in the presence of spectinomycin (200 μg/ml for PB2 and 500 μg/ml for PB3). The host cells were treated with different concentrations of (−)-α-bisabolol (0.0, 0.1, 0.25, 0.4, 0.5, 1.0 and 1.5 mM). FIGS. 6 and 7 show the fluorescence results for PB2 and PB3. Both biosensors show a dose response between 0.05 and 1.0 mM (−)-α-bisabolol.
(§5) E. coli EPI300™ with fosmids containing PB2 or PB3 were grown with 0.01% arabinose for high copy number of the biosensor, or grown in the absence of arabinose for low copy number of the biosensor, and then treated with a sesquiterpene: (−)-α-bisabolol, squalene, nerolidol, cintonellal, carvone, farnesene, or cineole. PB2 was also tested against linalool and PB3 was tested against ursolic acid.

[2] = system: PB3 bisabolol biosensor; test: PB3 bisabolol biosensor reporter fluorescence (Gemini reporter, GFP portion) in E. coli EPI300 host cells; assay type: cell-based, E. coli EPI300 (PB3 insert originating from Bradyrhizobium); conditions: for response of PB3 biosensor to stimulation with the compound: E. coli EPI300 with PB3, high (0.01% arabinose) or low copy number
Procedure: as §1, §2, §3, §4, §5

Molecule | response of PB2 biosensor to stimulation with the compound [1] | response of PB3 biosensor relative to (−)-α-bisabolol ([2]; E. coli EPI300 with PB3, 1 mM nerolidol) | response of PB3 biosensor to stimulation with the compound [2]
C=CC(C)(O)CCC=C(C)CCC=C(C)C (stereo not drawn) [nerolidol] | did not respond above background | comparable activity to PB3 treated with 0.2 mM (−)-α-bisabolol | 
C[C@H]1[C@H](C)CC[C@]2(C(=O)O)CC[C@]3(C)C(=CC[C@@H]4[C@@]5(C)CC[C@H](O)C(C)(C)[C@@H]5CC[C@]43C)[C@H]12 [ursolic acid] |  |  | did not respond above background
C=CC(C)(O)CCC=C(C)C (stereo not drawn) [linalool] | did not respond above background |  | 
farnesene | did not respond above background |  | did not respond above background
CC(C)=CCC[C@](C)(O)[C@@H]1CC=C(C)CC1 [(−)-α-bisabolol] | high specificity for induction |  | 
C=C(C)C1CC=C(C)C(=O)C1 (stereo not drawn) [carvone] | did not respond above background |  | did not respond above background
CC(C)=CCC[C@@H](C)CC=O [cintonellal] | did not respond above background |  | did not respond above background
CC12CCC(CC1)C(C)(C)O2 [cineole] | did not respond above background |  | did not respond above background
CC(C)=CCC/C(C)=C/CC/C(C)=C/CC/C=C(\C)CC/C=C(\C)CCC=C(C)C [squalene] | did not respond above background |  | did not respond above background
